Experimental data reported in ChEMBL document CHEMBL5030557, “Tandem Repeat of a Short Human Chemerin-Derived Peptide and Its Nontoxic d-Lysine-Containing Enantiomer Display Broad-Spectrum Antimicrobial and Antitubercular Activities” (J Med Chem, 2021).

System: Mycobacterium tuberculosis variant bovis
Experiment: Anti-mycobacterial activity against Mycobacterium bovis assessed as growth inhibition at 16.13 uM relative to control
Assay type: functional

| Structure (SMILES) | inhibition at 16.13 µM [%] |
| --- | --- |
| CC(C)C[C@H](NC(=O)[C@H](CCCNC(=N)N)NC(=O)CNC(=O)[C@H](CC(C)C)NC(=O)[C@@H](NC(=O)[C@@H](CCCCN)NC(=O)[C@@H](NC(=O)[C@H](CC(C)C)NC(=O)[C@H](CCCNC(=N)N)NC(=O)CNC(=O)[C@H](CC(C)C)NC(=O)[C@@H](NC(=O)[C@@H](N)CCCCN)C(C)C)C(C)C)C(C)C)C(=O)N[C@H](C(N)=O)C(C)C | 95 |
| CC(C)C[C@H](NC(=O)[C@H](CCCNC(=N)N)NC(=O)CNC(=O)[C@H](CC(C)C)NC(=O)[C@@H](NC(=O)[C@H](CCCCN)NC(=O)[C@@H](NC(=O)[C@H](CC(C)C)NC(=O)[C@H](CCCNC(=N)N)NC(=O)CNC(=O)[C@H](CC(C)C)NC(=O)[C@@H](NC(=O)[C@@H](N)CCCCN)C(C)C)C(C)C)C(C)C)C(=O)N[C@H](C(N)=O)C(C)C | 80 |
